Data taken from patent US20250248970A1, “NOVEL SUBSTITUTED FLUORINATED N-PROPYL-PYRROLIDINE COMPOUNDS, PROCESSES FOR THEIR PREPARATION AND THERAPEUTIC USES THEREOF” (SANOFI, priority 2022, published 2025).

Target: T1, ERα (Homo sapiens, UniProt P03372)
T1 construct: host or cells: MCF7
T1 sequence (P03372 1-595): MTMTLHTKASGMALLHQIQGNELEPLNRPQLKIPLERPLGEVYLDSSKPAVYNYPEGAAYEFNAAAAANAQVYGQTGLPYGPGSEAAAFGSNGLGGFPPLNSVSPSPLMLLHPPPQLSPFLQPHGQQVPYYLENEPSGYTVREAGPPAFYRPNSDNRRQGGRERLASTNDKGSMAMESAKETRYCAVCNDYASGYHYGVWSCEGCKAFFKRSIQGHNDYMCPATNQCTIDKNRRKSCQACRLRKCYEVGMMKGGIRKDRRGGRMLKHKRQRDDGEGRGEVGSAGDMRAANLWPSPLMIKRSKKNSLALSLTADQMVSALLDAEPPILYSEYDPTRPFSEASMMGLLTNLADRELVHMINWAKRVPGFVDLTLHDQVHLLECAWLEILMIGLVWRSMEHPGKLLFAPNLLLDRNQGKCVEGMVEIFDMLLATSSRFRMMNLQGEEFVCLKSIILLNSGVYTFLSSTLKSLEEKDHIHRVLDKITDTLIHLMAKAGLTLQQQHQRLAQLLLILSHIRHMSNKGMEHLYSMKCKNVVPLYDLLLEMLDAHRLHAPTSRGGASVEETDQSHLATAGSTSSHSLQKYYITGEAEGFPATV
Assay: Estrogen receptor degradation activity (breast cancer cell ERα in cell western assay)
Format: cell-based
Settings: MCF7 cells, 0.3 μM, 4 hours, % of ERα levels decrease relative to fulvestrant
Procedure: Said test involves measuring the in vitro degradation activity of the compounds of the Table 1a.
The measurements of the degradation activities were made using a breast cancer cell ERα in cell western assay as described hereunder.
MCF7 cells (ATCC) were seeded in 384 wells microplate (collagen coated) at a concentration of 10000 cells/30 μL per well in red phenol free MEM alpha medium (invitrogen) containing 5% charcoal dextran striped FBS. The following day, 9 points serial 1:5 dilution of each compound was added to the cells in 2.5p L at final concentrations ranging from 0.3-0.0000018 μM (in table 2), or 0.1 μM for fulvestrant (using as positive control). At 4 hours post compound addition the cells were fixed by adding 25 μL of formalin (final concentration 5% formalin containing 0.1% triton) for 10 minutes at room temperature and then washed twice with PBS. Then, 50 μL of LI-COR blocking buffer containing 0.1% Triton was added to plate for 30 minutes at room temperature. LI-COR blocking buffer was removed and cells were incubated overnight at cold room with 50 μL anti-ER rabbit monoclonal antibody (Thermo scientific MA1-39540) diluted at 1:1000 in LI-COR blocking buffer containing 0.1% tween-20. Wells which were treated with blocking buffer but no antibody were used as background control. Wells were washed twice with PBS (0.1% tween-20) and incubated at 37° C. for 60 minutes in LI-COR (0.1% tween-20) containing goat anti-rabbit antibody Alexa 488 (1:1000) and Syto-64 a DNA dye (2 μM final concentration). Cells were then washed 3 times in PBS and scanned in ACUMEN explorer (TTP-Labtech). Integrated intensities in the green fluorescence and red fluorescence were measured to determine the levels of ERα and DNA respectively.
The degradation activity with respect to estrogen receptors in this test is given by the concentration which degrades 50% of the estrogen receptor (or IC50) in nM.
The % of ERα levels decrease were determined as follows: % inhibition=100*(1−(sample−fulvestrant: DMSO−fulvestrant)).

Row | Compound | % Degradation At 0.3 μM [%]
1 | Oc1ccc2c(c1)SCCC(c1ccc(Cl)cc1Cl)=C2c1ccc(CC2CCN(CCCF)C2)cc1 (single isomer, unassigned; isomer 1) [Compound 43, 4-(2,4-dichlorophenyl)-5-(4-((1-(3-fluoropropyl)pyrrolidin-3-yl)methyl)phenyl)-2,3-dihydrobenzo[b]thiepin-8-ol, Isomer 1] | 80
2 | O=C(O)c1ccc2c(c1)CCCC(c1ccc(Cl)cc1Cl)=C2c1ccc(C[C@@H]2CCN(CCCF)C2)cc1 [Compound 24, 8-(2,4-dichlorophenyl)-9-(4-((1-(3-fluoropropyl)pyrrolidin-3-yl)methyl)phenyl)-6,7-dihydro-5H-benzo[7]annulene-3-carboxylic acid, (R) Isomer] | 46
3 | Cc1cc(F)cc(C)c1C1=C(c2ccc(CC3CCN(CCC(F)F)C3)cc2)c2ccc(C(=O)O)cc2CCC1.Cl (single isomer, unassigned; isomer 1) [Compound 32, 9-(4-((1-(3,3-difluoropropyl)pyrrolidin-3-yl)methyl)phenyl)-8-(4-fluoro-2,6-dimethylphenyl)-6,7-dihydro-5H-benzo[7]annulene-3-carboxylic acid hydrochloride, Isomer 1] | 76
4 | Oc1ccc2c(c1)SCCC(c1ccccc1Cl)=C2c1ccc(CC2CCN(CCCF)C2)cc1 (single isomer, unassigned; isomer 1) [Compound 44, 4-(2-chlorophenyl)-5-(4-((1-(3-fluoropropyl)pyrrolidin-3-yl)methyl)phenyl)-2,3-dihydrobenzo[b]thiepin-8-ol, Isomer 1] | 70
5 | Cl.O=C(O)c1ccc2c(c1)CCCC(c1ccc(C(F)(F)F)cc1)=C2c1ccc(CC2CCN(CCCF)C2)cc1 (single isomer, unassigned; isomer 1) [Compound 38, 9-(4-((1-(3-fluoropropyl)pyrrolidin-3-yl)methyl)phenyl)-8-(4-(trifluoromethyl)phenyl)-6,7-dihydro-5H-benzo[7]annulene-3-carboxylic acid hydrochloride, Isomer 1] | 92
6 | Cl.O=C(O)c1ccc2c(c1)SCC(c1ccc(Cl)cc1Cl)=C2c1ccc(CC2CCN(CCCF)C2)cc1 (single isomer, unassigned; isomer 1) [Compound 25, 3-(2,4-dichlorophenyl)-4-(4-((1-(3-fluoropropyl)pyrrolidin-3-yl)methyl)phenyl)-2H-thiochromene-7-carboxylic acid hydrochloride, Isomer 1] | 68
7 | Cl.O=C(O)c1ccc2c(c1)CCCC(c1ccc(F)cc1F)=C2c1ccc(CC2CCN(CCCF)C2)cc1 (single isomer, unassigned; isomer 1) [Compound 19, 8-(2,4-difluorophenyl)-9-(4-((1-(3-fluoropropyl)pyrrolidin-3-yl)methyl)phenyl)-6,7-dihydro-5H-benzo[7]annulene-3-carboxylic acid hydrochloride, Isomer 1] | 86
8 | Cl.Oc1ccc2c(c1)CCCC(c1ccc(Cl)cc1Cl)=C2c1ccc(CC2CCN(CCC(F)F)C2)cc1 (single isomer, unassigned; isomer 1) [Compound 31, 8-(2,4-dichlorophenyl)-9-(4-((1-(3,3-difluoropropyl)pyrrolidin-3-yl)methyl)phenyl)-6,7-dihydro-5H-benzo[7]annulen-3-ol hydrochloride, Isomer 1] | 73
9 | O=C(O)c1ccc2c(c1)CCCC(c1ccccc1C(F)(F)F)=C2c1ccc(CC2CCN(CCC(F)F)C2)cc1 (centres unmarked) [Compound 33, 9-(4-((1-(3,3-difluoropropyl)pyrrolidin-3-yl)methyl)phenyl)-8-(2-(trifluoromethyl)phenyl)-6,7-dihydro-5H-benzo[7]annulene-3-carboxylic acid] | 76
10 | Cl.O=C(O)c1ccc2c(c1)CCCC(c1cccc(Cl)c1)=C2c1ccc(CC2CCN(CCCF)C2)cc1 (single isomer, unassigned; isomer 1) [Compound 40, 8-(3-chlorophenyl)-9-(4-((1-(3-fluoropropyl)pyrrolidin-3-yl)methyl)phenyl)-6,7-dihydro-5H-benzo[7]annulene-3-carboxylic acid hydrochloride, Isomer 1] | 73
11 | Cc1c(C2=C(c3ccc(CC4CCN(CCC(F)F)C4)cc3)c3ccc(C(=O)O)cc3CCC2)cccc1C(F)(F)F.Cl (single isomer, unassigned; isomer 1) [Compound 28, 9-(4-((1-(3,3-difluoropropyl)pyrrolidin-3-yl)methyl)phenyl)-8-(2-methyl-3-(trifluoromethyl)phenyl)-6,7-dihydro-5H-benzo[7]annulene-3-carboxylic acid hydrochloride, Isomer 1] | 78
12 | O=C(O)c1ccc2c(c1)CCCC(c1ccc(Cl)cc1Cl)=C2c1ccc(C(F)(F)C2CCN(CCCF)C2)cc1 (single isomer, unassigned; isomer 1) [Compound 26, 8-(2,4-dichlorophenyl)-9-(4-(difluoro(1-(3-fluoropropyl)pyrrolidin-3-yl)methyl)phenyl)-6,7-dihydro-5H-benzo[7]annulene-3-carboxylic acid, Isomer 1] | 84
13 | Cl.Oc1ccc2c(c1)CCCC(c1ccc(Cl)cc1Cl)=C2c1ccc(CC2CCN(CCCF)C2)cc1 (single isomer, unassigned; isomer 1) [Compound 29, 8-(2,4-dichlorophenyl)-9-(4-((1-(3-fluoropropyl)pyrrolidin-3-yl)methyl)phenyl)-6,7-dihydro-5H-benzo[7]annulene-3-ol hydrochloride, Isomer 1] | 76
14 | Cl.O=C(O)c1ccc2c(c1)CCCC(c1ccc(F)cc1Cl)=C2c1ccc(CC2CCN(CCC(F)F)C2)cc1 (single isomer, unassigned; isomer 1) [Compound 27, 8-(2-chloro-4-fluorophenyl)-9-(4-((1-(3,3-difluoropropyl)pyrrolidin-3-yl)methyl)phenyl)-6,7-dihydro-5H-benzo[7]annulene-3-carboxylic acid hydrochloride, Isomer 1] | 73
